Assay results: patent publication US9637493B2, “Substituted pyrrolopyrimidines as HDM2 inhibitors” (Merck Sharp & Dohme Corp., priority 2012, dated 2017)

What follows are compounds tested against HDM2 (Homo sapiens (Human), UniProt Q00987) (assay: HDM2 FRET assay (inhibition of p53 peptide binding to HDM2)). Details: truncated HDM2 residues 17 to 125, 0.5 nM; FITC labeled 8-mer peptide 3 nM; two hour incubation at room temperature.
HDM2, sequence (Q00987 17-125): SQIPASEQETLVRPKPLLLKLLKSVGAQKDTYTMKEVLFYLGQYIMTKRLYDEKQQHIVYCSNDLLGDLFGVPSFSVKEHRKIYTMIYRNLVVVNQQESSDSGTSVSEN
Experimental: Methods: An HDM2 FRET assay was developed to assess the compounds' inhibitory activity towards binding of p53 protein. […] (containing p53 binding surface, Science (1994) 265, 346-355), with N-terminal His and Thioredoxin tag was generated in pET32a expression vector and expressed in E. coli strain BL21(DE3)Rosetta. Protein was purified using Ni-affinity chromatography, followed by size exclusion chromatography using Superdex 75 26/60 column. […] After two hour incubation at room temperature in a humidified chamber plates were read on EnVision plate reader with the following settings: excitation: UV, […], two emission filters: 520 nm and 495 nm respectively. […] IC50 DETERMINATIONS: Dose-response curves were plotted from the inhibition data, from 10 point serial dilutions of inhibitory compounds. Concentration of compound was plotted against em520/Cem495 ratio signal. To generate IC50 values, the dose-response curves were fitted to a standard sigmoidal curve and IC50 values were derived by nonlinear regression analysis.
For `C[C@H]1CC[C@H](Cn2c(C(F)c3ccccc3F)cc3nc(C(=O)O)nc(-c4cncc(Cl)c4)c32)CC1` (mixture of isomers) [Example 8.1, 4-(5-chloropyridin-3-yl)-6-[fluoro(2-fluorophenyl)methyl]-5-[(trans-4-methylcyclohexyl)methyl]-5H-pyrrolo[3,2-d]pyrimidine-2-carboxylic acid], the IC50 was 3 nM. Compound `Cc1ccc(F)c(-c2cc3nc(C(=O)O)nc(N[C@H](C)C4CCC4)c3n2Cc2ccc(C(F)(F)F)cc2)c1` [Example 1.1, (R)-4-((1-cyclobutylethyl)amino)-6-(2-fluoro-5-methylphenyl)-5-(4-(trifluoromethyl)benzyl)-5H-pyrrolo[3,2-d]pyrimidine-2-carboxylic acid] has an IC50 of 62 nM. `Cc1ccc(F)c(-c2cn(Cc3ccc(C(F)(F)F)cc3)c3c(N[C@H](C)C4CCC4)nc(C(=O)O)nc23)c1` [Example 1.2, (R)-4-((1-cyclobutylethyl)amino)-7-(2-fluoro-5-methylphenyl)-5-(4-(trifluoromethyl)benzyl)-5H-pyrrolo[3,2-d]pyrimidine-2-carboxylic acid] was tested, and the IC50 was 353 nM. `Cc1cccc(-c2cc3nc(C(=O)O)nc(N[C@H](C)C4CCC4)c3n2Cc2ccc(C(F)(F)F)cc2)c1` [Example 1.3, (R)-4-((1-cyclobutylethyl)amino)-6-(m-tolyl)-5-(4-(trifluoromethyl)benzyl)-5H-pyrrolo[3,2-d]pyrimidine-2-carboxylic acid] showed an IC50 of 140 nM. Work on `Cc1cccc(-c2c(C)c3nc(C(=O)O)nc(N[C@H](C)C4CCC4)c3n2Cc2ccc(C(F)(F)F)cc2)c1` [Example 1.4, (R)-4-((1-cyclobutylethyl)amino)-7-methyl-6-(m-tolyl)-5-(4-(trifluoromethyl)benzyl)-5H-pyrrolo[3,2-d]pyrimidine-2-carboxylic acid] yielded an IC50 of 130 nM. Work on `COc1ccc(C)cc1-c1cc2nc(C(=O)O)nc(N[C@H](C)C3CCC3)c2n1Cc1ccc(C(F)(F)F)cc1` [Example 1.5, 4-{[(1R)-1-cyclobutylethyl]amino}-6-(2-methoxy-5-methylphenyl)-5-[4-(trifluoromethyl)benzyl]-5H-pyrrolo[3,2-d]pyrimidine-2-carboxylic acid] yielded an IC50 of 42 nM. `C[C@@H](Nc1nc(C(=O)O)nc2cc(-c3ccc4occc4c3)n(Cc3ccc(C(F)(F)F)cc3)c12)C1CCC1` [Example 1.6, 6-(1-benzofuran-5-yl)-4-{[(1R)-1-cyclobutylethyl]amino}-5-[4-(trifluoromethyl)benzyl]-5H-pyrrolo[3,2-d]pyrimidine-2-carboxylic acid] showed an IC50 of 105 nM. Compound `Cc1ccc(Cl)c(-c2cc3nc(C(=O)O)nc(N[C@H](C)C4CCC4)c3n2Cc2ccc(C(F)(F)F)cc2)c1` [Example 1.7, 6-(2-chloro-5-methylphenyl)-4-{[(1R)-1-cyclobutylethyl]amino}-5-[4-(trifluoromethyl)benzyl]-5H-pyrrolo[3,2-d]pyrimidine-2-carboxylic acid] has an IC50 of 63 nM. In the case of `Cc1ccc(Cl)c(-c2cn(Cc3ccc(C(F)(F)F)cc3)c3c(N[C@H](C)C4CCC4)nc(C(=O)O)nc23)c1` [Example 1.8, 7-(2-chloro-5-methylphenyl)-4-{[(1R)-1-cyclobutylethyl]amino}-5-[4-(trifluoromethyl)benzyl]-5H-pyrrolo[3,2-d]pyrimidine-2-carboxylic acid], the IC50 is reported as 712 nM. `Cc1ccnc(-c2cc3nc(C(=O)O)nc(N[C@H](C)C4CCC4)c3n2Cc2ccc(C(F)(F)F)cc2)c1` [Example 1.9, 4-{[(1R)-1-cyclobutylethyl]amino}-6-(4-methylpyridin-2-yl)-5-[4-(trifluoromethyl)benzyl]-5H-pyrrolo[3,2-d]pyrimidine-2-carboxylic acid] gave an IC50 of 18 nM. Compound `CC(C)c1ccnc(-c2cc3nc(C(=O)O)nc(N[C@H](C)C4CCC4)c3n2Cc2ccc(C(F)(F)F)cc2)c1` [Example 1.10, 4-{[(1R)-1-cyclobutylethyl]amino}-6-[4-(1-methylethyl)pyridin-2-yl]-5-[4-(trifluoromethyl)benzyl]-5H-pyrrolo[3,2-d]pyrimidine-2-carboxylic acid] has an IC50 of 26 nM. For `Cc1c(-c2cc(C(C)C)ccn2)n(Cc2ccc(C(F)(F)F)cc2)c2c(N[C@H](C)C3CCC3)nc(C(=O)O)nc12` [Example 1.11, 4-{[(1R)-1-cyclobutylethyl]amino}-7-methyl-6-[4-(1-methylethyl)pyridin-2-yl]-5-[4-(trifluoromethyl)benzyl]-5H-pyrrolo[3,2-d]pyrimidine-2-carboxylic acid], the IC50 was 50 nM. Compound `Cc1cccc(-c2cc3nc(C(=O)O)nc(N[C@H](C)C4CCC4)c3n2Cc2ccc(C(F)(F)F)cc2N)c1` [Example 2.1, 5-[2-amino-4-(trifluoromethyl)benzyl]-4-{[(1R)-1-cyclobutylethyl]amino}-6-(3-methylphenyl)-5H-pyrrolo[3,2-d]pyrimidine-2-carboxylic acid] has an IC50 of 11 nM. Compound `Cc1cccc(-c2cc3nc(C(=O)O)nc(N[C@H](C)C4CCC4)c3n2Cc2ccc(C(F)(F)F)cn2)c1` [Example 2.2, 4-{[(1R)-1-cyclobutylethyl]amino}-6-(3-methylphenyl)-5-{[5-(trifluoromethyl)pyridin-2-yl]methyl}-5H-pyrrolo[3,2-d]pyrimidine-2-carboxylic acid] has an IC50 of 844 nM. `Cc1cccc(-c2cc3nc(C(=O)O)nc(N[C@H](C)C4CCC4)c3n2Cc2ccc(OC(F)(F)F)cc2)c1` [Example 2.3, 4-{[(1R)-1-cyclobutylethyl]amino}-6-(3-methylphenyl)-5-[4-(trifluoromethoxy)benzyl]-5H-pyrrolo[3,2-d]pyrimidine-2-carboxylic acid] showed an IC50 of 348 nM. `Cc1cccc(-c2cc3nc(C(=O)O)nc(N[C@H](C)C4CCC4)c3n2Cc2ccc(OC(F)(F)F)c(F)c2)c1` [Example 2.4, 4-{[(1R)-1-cyclobutylethyl]amino}-5-[3-fluoro-4-(trifluoromethoxy)benzyl]-6-(3-methylphenyl)-5H-pyrrolo[3,2-d]pyrimidine-2-carboxylic acid] gave an IC50 of 267 nM. Compound `COc1cc(OC(F)(F)F)ccc1Cn1c(-c2cccc(C)c2)cc2nc(C(=O)O)nc(N[C@H](C)C3CCC3)c21` [Example 2.5, 4-{[(1R)-1-cyclobutylethyl]amino}-5-[2-methoxy-4-(trifluoromethoxy)benzyl]-6-(3-methylphenyl)-5H-pyrrolo[3,2-d]pyrimidine-2-carboxylic acid] has an IC50 of 4370 nM. `Cc1cccc(-c2cc3nc(C(=O)O)nc(N[C@H](C)C4CCC4)c3n2Cc2ccc(OC(F)F)cc2)c1` [Example 2.6, 4-{[(1R)-1-cyclobutylethyl]amino}-5-[4-(difluoromethoxy)benzyl]-6-(3-methylphenyl)-5H-pyrrolo[3,2-d]pyrimidine-2-carboxylic acid] was tested, and the IC50 was 1780 nM. With `Cc1cccc(-c2cc3nc(C(=O)O)nc(N[C@H](C)C4CCC4)c3n2Cc2ccc(C(F)(F)F)c(F)c2)c1` [Example 2.7, 4-{[(1R)-1-cyclobutylethyl]amino}-5-[3-fluoro-4-(trifluoromethyl)benzyl]-6-(3-methylphenyl)-5H-pyrrolo[3,2-d]pyrimidine-2-carboxylic acid] the IC50 was 87 nM. For `COc1ccc(Cn2c(-c3cccc(C)c3)cc3nc(C(=O)O)nc(N[C@H](C)C4CCC4)c32)cc1` [Example 2.8, 4-{[(1R)-1-cyclobutylethyl]amino}-5-(4-methoxybenzyl)-6-(3-methylphenyl)-5H-pyrrolo[3,2-d]pyrimidine-2-carboxylic acid], the IC50 was 6190 nM. With `Cc1cccc(-c2cc3nc(C(=O)O)nc(N[C@H](C)C4CCC4)c3n2Cc2ccc(Cl)c(F)c2)c1` [Example 3.1, 5-(4-chloro-3-fluorobenzyl)-4-{[(1R)-1-cyclobutylethyl]amino}-6-(3-methylphenyl)-5H-pyrrolo[3,2-d]pyrimidine-2-carboxylic acid] the IC50 was 21 nM. Work on `Cc1cccc(-c2cc3nc(C(=O)O)nc(N[C@H](C)C4CCC4)c3n2Cc2ccc(C(F)F)cc2)c1` [Example 3.2, 4-{[(1R)-1-cyclobutylethyl]amino}-5-[4-(difluoromethyl)benzyl]-6-(3-methylphenyl)-5H-pyrrolo[3,2-d]pyrimidine-2-carboxylic acid] yielded an IC50 of 530 nM. Work on `Cc1cccc(-c2cc3nc(C(=O)O)nc(N[C@H](C)C4CCC4)c3n2Cc2ccc(C(F)(F)F)nc2)c1` [Example 3.3, 4-{[(1R)-1-cyclobutylethyl]amino}-6-(3-methylphenyl)-5-{[6-(trifluoromethyl)pyridin-3-yl]methyl}-5H-pyrrolo[3,2-d]pyrimidine-2-carboxylic acid] yielded an IC50 of 178 nM. With `Cc1cccc(-c2cc3nc(C(=O)O)nc(N[C@H](C)C4CCC4)c3n2Cc2ccc(Br)c(F)c2)c1` [Example 3.4, 5-(4-bromo-3-fluorobenzyl)-4-{[(1R)-1-cyclobutylethyl]amino}-6-(3-methylphenyl)-5H-pyrrolo[3,2-d]pyrimidine-2-carboxylic acid] the IC50 was 15 nM. With `Cc1cccc(-c2cc3nc(C(=O)O)nc(N[C@H](C)C4CCC4)c3n2Cc2ccc(F)c(F)c2)c1` [Example 3.5, 4-{[(1R)-1-cyclobutylethyl]amino}-5-(3,4-difluorobenzyl)-6-(3-methylphenyl)-5H-pyrrolo[3,2-d]pyrimidine-2-carboxylic acid] the IC50 was 126 nM. `Cc1cccc(-c2cc3nc(C(=O)O)nc(N[C@H](C)C4CCC4)c3n2Cc2ccc(C)c(F)c2)c1` [Example 3.6, 4-{[(1R)-1-cyclobutylethyl]amino}-5-(3-fluoro-4-methylbenzyl)-6-(3-methylphenyl)-5H-pyrrolo[3,2-d]pyrimidine-2-carboxylic acid] gave an IC50 of 124 nM. Compound `C[C@H]1CC[C@H](Cn2ccc3nc(C(=O)O)nc(-c4cccc(Cl)c4)c32)CC1` [Example 4.1, 4-(3-chlorophenyl)-5-[(trans-4-methylcyclohexyl)methyl]-5H-pyrrolo[3,2-d]pyrimidine-2-carboxylic acid] has an IC50 of 294 nM.
